Assay results taken from US10266535B2, “Inhibitor of FLT3 kinase and use thereof” (HEFEI INSTITUTES OF PHYSICAL SCIENCE, CHINESE ACADEMY OF …, priority 2015, dated 2019).
Where two headings read alike, the source gives them in different places.

Experiments:
[1] = system: TEL-BaF3-BLK (stably expressing BLK kinase); assay: Cell proliferation, Cell Titer-Glo, TEL-BaF3-BLK; type: cell-based; details: Mus musculus; incubated for 72 hours
Outline: (§1)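 Viable cells quantified by CellTiter-Glo ATP luminescence; BaF3 lines generated in-house.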

[2] = system: TEL-BaF3-BMX (stably expressing BMX kinase); assay: Cell proliferation, Cell Titer-Glo, TEL-BaF3-BMX; type: cell-based; details: Mus musculus; incubated for 72 hours
Outline: as §1

[3] = system: TEL-JAK1-BaF3 (stably expressing JAK1 kinase); assay: Cell proliferation, Cell Titer-Glo, TEL-JAK1-BaF3; type: cell-based; details: Mus musculus; incubated for 72 hours
Method: (§2) The above cell lines were constructed by our laboratory.
(§3) The number of viable cells was determined by quantification of ATP in living cells using the Cell Titer-Glo® (Promega, USA) chemiluminescence cell viability assay kit.

[4] = system: TEL-BaF3-FLT3/ITD (stably expressing FLT3/ITD mutant activated kinase); assay: Cell proliferation, Cell Titer-Glo, TEL-BaF3-FLT3/ITD; type: cell-based, mouse; details: Mus musculus, 72 h
Outline: as §1

[5] = system: TEL-BaF3-EGFR (stably expressing EGFR kinase); assay: Cell proliferation, Cell Titer-Glo, TEL-BaF3-EGFR; type: cell-based; details: Mus musculus; incubated for 72 hours
Method: as §2, §3

[6] = system: TEL-BaF3-FLT3-D835Y (stably expressing FLT3 D835Y mutant activated kinase); assay: Cell proliferation, Cell Titer-Glo, TEL-BaF3-FLT3-D835Y; type: cell-based; details: Mus musculus
Method: as §2, §3

[7] = system: TEL-cKIT-BaF3 (stably expressing cKIT kinase); assay: Cell proliferation, Cell Titer-Glo, TEL-cKIT-BaF3; type: cell-based; details: Mus musculus; incubated for 72 hours
Method: as §2, §3

[8] = system: U937 (expressing wild-type FLT3 gene); assay: Cell proliferation, Cell Titer-Glo, U937; type: cell-based, human; details: Homo sapiens, U-937, 72 h
Outline: (§4)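 Read-out: luminescence from ATP in live cells (CellTiter-Glo), taken as viable cell number. Cell lines were built in-house.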

[9] = system: BaF3-FLT3-ITD-D835Y (stably expressing FLT3/ITD D835Y mutant activated kinase); assay: Cell proliferation, Cell Titer-Glo, BaF3-FLT3-ITD-D835Y; type: cell-based; details: Mus musculus
Method: as §2, §3

[10] = system: MOLM-14 (expressing FLT3/ITD mutant gene and wild-type FLT3 gene); assay: Cell proliferation, Cell Titer-Glo, MOLM-14; type: cell-based; details: Homo sapiens
Method: as §2, §3

[11] = system: TPR-MET-BaF3 (stably expressing MET kinase); assay: Cell proliferation, Cell Titer-Glo, TPR-MET-BaF3; type: cell-based; details: Mus musculus; incubated for 72 hours
Method: as §2, §3

BTK protein kinase = BTK protein kinase (Homo sapiens (Human), UniProt Q06187); assay: In vitro inhibition activity (enzymatic activity), ADP-Glo, BTK; type: biochemical; details: ATP 10 μM
[12] = system: BaF3-FLT3-ITD-F691L (stably expressing FLT3/ITD F691L mutant activated kinase); assay: Cell proliferation, Cell Titer-Glo, BaF3-FLT3-ITD-F691L; type: cell-based; details: Mus musculus
Method: as §2, §3

[13] = system: MV4-11 (expressing FLT3/ITD mutant gene); assay: Cell proliferation, Cell Titer-Glo, MV4-11; type: cell-based; details: Homo sapiens
Outline: as §4

pro-B cell BaF3 = assay: Cell proliferation, Cell Titer-Glo, BaF3; type: cell-based; details: Mus musculus, incubated for 72 hours
Outline: as §1

[14] = system: MOLM-13 (expressing FLT3/ITD mutant gene and wild-type FLT3 gene); assay: Cell proliferation, Cell Titer-Glo, MOLM-13; type: cell-based; details: Homo sapiens
Outline: as §4

[15] = system: OCI-AML-3 (expressing FLT3 A680V mutant gene); assay: Cell proliferation, Cell Titer-Glo, OCI-AML3; type: cell-based; details: Homo sapiens, incubated for 72 hours
Outline: as §4

[16] = system: TEL-FLT3-BaF3 (stably expressing FLT3 kinase); assay: Cell proliferation, Cell Titer-Glo, TEL-FLT3-BaF3; type: cell-based; details: Mus musculus; incubated for 72 hours; read-out: TEL-FLT3-BaF3 IC50
Method: as §2, §3

[17] = incubated for 72 hours, read-out: TEL-BaF3-FLT3/ITD IC50
[18] = incubated for 72 hours, read-out: TEL-BaF3-FLT3-D835Y IC50
[19] = incubated for 72 hours, read-out: U937 IC50
[20] = incubated for 72 hours, read-out: BaF3-FLT3-ITD-D835Y IC50
[21] = MOLM-14, incubated for 72 hours, read-out: MOLM-14 IC50
[22] = incubated for 72 hours, read-out: BaF3-FLT3-ITD-F691L IC50
[23] = MV4-11, incubated for 72 hours, read-out: MV4-11 IC50
[24] = MOLM-13, incubated for 72 hours, read-out: MOLM-13 IC50

BTK protein kinase, sequence (Q06187 whole entry): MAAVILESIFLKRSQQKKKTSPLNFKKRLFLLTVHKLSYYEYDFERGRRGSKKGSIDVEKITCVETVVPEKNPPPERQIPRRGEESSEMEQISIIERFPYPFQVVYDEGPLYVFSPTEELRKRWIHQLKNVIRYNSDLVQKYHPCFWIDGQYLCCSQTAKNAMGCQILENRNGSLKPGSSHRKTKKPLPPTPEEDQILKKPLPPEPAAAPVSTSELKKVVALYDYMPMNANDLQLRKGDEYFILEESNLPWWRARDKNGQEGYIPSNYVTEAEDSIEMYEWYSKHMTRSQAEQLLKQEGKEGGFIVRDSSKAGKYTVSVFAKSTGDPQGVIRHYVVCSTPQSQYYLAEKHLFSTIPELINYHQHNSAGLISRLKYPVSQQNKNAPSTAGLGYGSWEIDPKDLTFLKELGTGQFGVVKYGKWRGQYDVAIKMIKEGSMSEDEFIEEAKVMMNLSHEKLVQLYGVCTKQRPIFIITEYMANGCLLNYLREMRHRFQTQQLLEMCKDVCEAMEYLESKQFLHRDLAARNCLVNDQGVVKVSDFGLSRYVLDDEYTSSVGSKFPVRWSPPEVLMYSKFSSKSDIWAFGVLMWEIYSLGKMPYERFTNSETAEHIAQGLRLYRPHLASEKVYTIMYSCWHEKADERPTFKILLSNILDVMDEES

With CC(C)C[C@@H](N)C(=O)N1CCC[C@@H](n2nc(-c3ccc(Oc4ccccc4)cc3)c3c(N)ncnc32)C1 [Compound 27, (R)-2-amino-1-((R)-3-(4-amino-(4-phenoxyphenyl)-1H-pyrazolo[3,4-d]pyrimidin-1-yl)piperidin-1-yl)-4-methylpentan-1-one] as the compound, how does the IC50 [1] read?
Its IC50 is 0.21 µM.

What about the IC50 [2] of the same compound?
Its IC50 is 0.34 µM.

And the IC50 [3]?
Its IC50 is 2.2 µM.

And the IC50 [4, 17]?
Its IC50 is 0.005 µM.

What about the IC50 [5] of the same compound?
Its IC50 is 0.99 µM.

What about the IC50 [6, 18] of the same compound?
The IC50 was 0.018 µM.

And the IC50 [7]?
Its IC50 is 1.6 µM.

And the IC50 [8, 19]?
Its IC50 is 4.1 µM.

And the IC50 [9, 20]?
Its IC50 is 0.2 µM.

And the IC50 [10, 21]?
The IC50 was 0.023 µM.

What about the IC50 [11] of the same compound?
Its IC50 is 1.5 µM.

What about the IC50 (BTK protein kinase) of the same compound?
Its IC50 is 0.688 µM.

And the IC50 [12, 22]?
Its IC50 is 0.28 µM.

And the IC50 [13, 23]?
The IC50 was 0.032 µM.

What about the IC50 (pro-B cell BaF3) of the same compound?
The IC50 was 1.3 µM.

And the IC50 [14, 24]?
Its IC50 is 0.014 µM.

For CS(=O)(=O)N1CCC[C@@H](n2nc(-c3ccc(Oc4ccccc4)cc3)c3c(N)ncnc32)C1 [Compound 30, (R)-1-(1-(methylsulfonyl)piperidin-3-yl)-3-(4-phenoxyphenyl)-1H-pyrazolo[3,4-d]pyrimidin-4-amine], which IC50 [15] is on record?
The IC50 was greater than 10 µM.

And the IC50 [1]?
Its IC50 is 3.5 µM.

What about the IC50 [2] of the same compound?
The IC50 was 0.14 µM.

What about the IC50 [4, 17] of the same compound?
The IC50 was 0.048 µM.

And the IC50 [6, 18]?
Its IC50 is 0.65 µM.

And the IC50 [7]?
The IC50 was 4.35 µM.

What about the IC50 [8, 19] of the same compound?
Its IC50 is greater than 10 µM.

What about the IC50 [9, 20] of the same compound?
Its IC50 is 2.5 µM.

What about the IC50 [10, 21] of the same compound?
Its IC50 is 0.26 µM.

What about the IC50 [11] of the same compound?
Its IC50 is 9.27 µM.

And the IC50 (BTK protein kinase)?
Its IC50 is 1.83 µM.

And the IC50 [12, 22]?
Its IC50 is 5.3 µM.

What about the IC50 [13, 23] of the same compound?
The IC50 was 0.17 µM.

What about the IC50 (pro-B cell BaF3) of the same compound?
Its IC50 is greater than 10 µM.

What about the IC50 [14, 24] of the same compound?
The IC50 was 0.13 µM.

CN1CCC(C(=O)N2CCC[C@@H](n3nc(-c4ccc(Oc5ccccc5)cc4)c4c(N)ncnc43)C2)CC1 [Compound 33, (R)-(3-(4-amino-(4-phenoxyphenyl)-1H-pyrazolo[3,4-d]pyrimidin-1-yl)piperidin-1-yl)(1-methylpiperidin-4-yl)methanone] was tested. Which IC50 [15] did it give?
The IC50 was 5.3 µM.

What about the IC50 [1] of the same compound?
The IC50 was 0.61 µM.

And the IC50 [2]?
Its IC50 is 0.07 µM.

What about the IC50 [4, 17] of the same compound?
Its IC50 is 0.077 µM.

And the IC50 [6, 18]?
Its IC50 is 0.14 µM.

And the IC50 [7]?
The IC50 was 2.01 µM.

And the IC50 [8, 19]?
The IC50 was greater than 10 µM.

And the IC50 [9, 20]?
The IC50 was 0.63 µM.

What about the IC50 [10, 21] of the same compound?
The IC50 was 0.22 µM.

And the IC50 [11]?
Its IC50 is 1.45 µM.

And the IC50 (BTK protein kinase)?
The IC50 was 0.421 µM.

What about the IC50 [12, 22] of the same compound?
The IC50 was 0.28 µM.

What about the IC50 [13, 23] of the same compound?
The IC50 was 0.16 µM.

And the IC50 (pro-B cell BaF3)?
Its IC50 is 5 µM.

And the IC50 [14, 24]?
Its IC50 is 0.16 µM.

NCC(=O)N1CCC[C@@H](n2nc(-c3ccc(Oc4ccccc4)cc3)c3c(N)ncnc32)C1 [Compound 43, (R)-2-amino-1-(3-(4-amino-(4-phenoxyphenyl)-1H-pyrazolo[3,4-d]pyrimidin-1-yl)piperidin-1-yl)ethanone] was tested. Which IC50 [15] did it give?
The IC50 was 5.98 µM.

And the IC50 [1]?
Its IC50 is 0.12 µM.

And the IC50 [2]?
The IC50 was 0.022 µM.

What about the IC50 [4, 17] of the same compound?
Its IC50 is 0.007 µM.

And the IC50 [8, 19]?
Its IC50 is 7.21 µM.

What about the IC50 [9, 20] of the same compound?
The IC50 was 0.41 µM.

What about the IC50 [10, 21] of the same compound?
The IC50 was 0.028 µM.

What about the IC50 [11] of the same compound?
The IC50 was 2.77 µM.

And the IC50 (BTK protein kinase)?
The IC50 was 0.028 µM.

And the IC50 [12, 22]?
Its IC50 is 1.1 µM.

What about the IC50 [13, 23] of the same compound?
Its IC50 is 0.022 µM.

What about the IC50 (pro-B cell BaF3) of the same compound?
Its IC50 is 3.8 µM.

And the IC50 [14, 24]?
The IC50 was 0.02 µM.

How did the IC50 [1] turn out when CN(C)CC(=O)NC1CCC(n2nc(-c3ccc(Oc4ccccc4)cc3)c3c(N)ncnc32)CC1 (centres unmarked) [Compound 76, N-(4-(4-amino-3-(4-phenoxyphenyl)-1H-pyrazolo[3,4-d]pyrimidin-1-yl)cyclohexyl)-2-(dimethylamino)acetamide] was run?
Its IC50 is 0.03 µM.

And the IC50 [2]?
The IC50 was 0.12 µM.

What about the IC50 ([4]; read-out: TEL-BaF3-FLT3/ITD IC50 [μM]) of the same compound?
Its IC50 is 0.0067 µM.

What about the IC50 [6, 18] of the same compound?
Its IC50 is 0.023 µM.

And the IC50 [7]?
Its IC50 is 0.43 µM.

What about the IC50 [8, 19] of the same compound?
The IC50 was greater than 10 µM.

What about the IC50 [9, 20] of the same compound?
The IC50 was 0.13 µM.

What about the IC50 [16] of the same compound?
Its IC50 is 0.042 µM.

And the IC50 [10, 21]?
The IC50 was 0.036 µM.

What about the IC50 (BTK protein kinase) of the same compound?
Its IC50 is 0.388 µM.

And the IC50 [12, 22]?
Its IC50 is 0.18 µM.

And the IC50 [13, 23]?
Its IC50 is 0.027 µM.

And the IC50 (pro-B cell BaF3)?
Its IC50 is 4.2 µM.

For CS(=O)(=O)NC1CCC(n2nc(-c3ccc(Oc4ccccc4)cc3)c3c(N)ncnc32)CC1 (centres unmarked) [Compound 78, N-(4-(4-amino-3-(4-phenoxyphenyl)-1H-pyrazolo[3,4-d]pyrimidin-1-yl)cyclohexyl)methanesulfonamide], which IC50 [1] is on record?
The IC50 was 0.004 µM.

And the IC50 [2]?
The IC50 was 0.038 µM.

What about the IC50 ([6]; 72 h, read-out: TEL-BaF3-FLT3-D835Y IC50 [μM]) of the same compound?
Its IC50 is 0.0076 µM.

What about the IC50 [7] of the same compound?
Its IC50 is 0.32 µM.

And the IC50 ([8]; read-out: U937 IC50 [μM], incubated for 72 hours)?
Its IC50 is 3.6 µM.

What about the IC50 ([9]; 72 h, read-out: BaF3-FLT3-ITD-D835Y IC50 [μM]) of the same compound?
Its IC50 is 0.053 µM.

And the IC50 ([10]; MOLM-14, 72 h, read-out: MOLM-14 IC50 [μM])?
The IC50 was 0.11 µM.

And the IC50 ([12]; 72 h, read-out: BaF3-FLT3-ITD-F691L IC50 [μM])?
The IC50 was 0.27 µM.

What about the IC50 ([13]; MV4-11, 72 h, read-out: MV4-11 IC50 [μM]) of the same compound?
The IC50 was 0.018 µM.

And the IC50 (pro-B cell BaF3)?
Its IC50 is 6 µM.

What about the IC50 ([14]; MOLM-13, 72 h, read-out: MOLM-13 IC50 [μM]) of the same compound?
Its IC50 is 0.019 µM.
